Test system: iniA
Assay type: cell-based, BCG

Compound: NNC(=O)c1ccncc1 [isoniazid]
- Induction of iniA in isoniazid resistant BCG strain: Lack of iniA induction
- Induction of iniA in isoniazid susceptible BCG strain: seen only in the susceptible BCG strain
